The source of these data is PMC12432858, “Longitudinal imaging of therapeutic enzyme expression after gene therapy for Fabry disease using positron emission tomography and the radiotracer [^18F]AGAL” (Molecular Therapy, 2024).

As a reminder, the Kd is the free concentration of one partner at which half of the binding sites on the other are occupied at equilibrium, for simple one-to-one binding.

The target of the assay is T1, human α-galactosidase A (GLA; α-Gal A) (Homo sapiens, UniProt P06280).
T1 construct: heart tissue cryosections; no tag stated
T1 sequence (P06280 32-429): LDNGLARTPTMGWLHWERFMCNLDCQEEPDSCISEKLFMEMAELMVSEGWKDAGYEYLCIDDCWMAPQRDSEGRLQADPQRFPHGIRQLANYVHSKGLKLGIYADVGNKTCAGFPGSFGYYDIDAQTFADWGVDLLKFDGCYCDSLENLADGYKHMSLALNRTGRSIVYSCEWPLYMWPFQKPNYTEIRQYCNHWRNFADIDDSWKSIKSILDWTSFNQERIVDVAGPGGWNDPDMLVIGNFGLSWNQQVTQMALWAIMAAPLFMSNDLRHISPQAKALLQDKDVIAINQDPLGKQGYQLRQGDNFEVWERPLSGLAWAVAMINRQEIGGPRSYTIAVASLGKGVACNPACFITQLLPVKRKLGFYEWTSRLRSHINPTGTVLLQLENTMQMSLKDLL
Put plainly: saturation autoradiography on heart sections, one-site specific binding fit. As to conditions: pH 5.0 McIlvaine buffer, 23 °C, 60 min; nonspecific binding defined with [19F]AGAL; active site; covalent (proposed); labelled compound; GLA in tissue sections of AAVGLA-treated Gla knockout mice.

For the molecule `O=C(CCCCCCCn1cc(CCCF)nn1)N1C2C(O)C(O)C(O)C(CO)C21` (stereo not shown) [[^18F]AGAL], the dissociation constant (Kd) was around 0.02 µM.
